From ChEMBL document CHEMBL5584324, “Exploiting spirooxindoles for dual DNA targeting/CDK2 inhibition and simultaneous mitigation of oxidative stress towards selective NSCLC therapy; synthesis, evaluation, and molecular modelling studies” (RSC Med Chem, 2024)
The source made the active and inactive calls. No cut-off for these calls is given here.

Tests used:
[1] = Antioxidant activity assessed as DPPH radical scavenging activity incubated for 30 mins by absorbance based assay; assay type: functional
[2] = Cytotoxicity against human WI-38 cells incubated for 72 hrs by MTT assay; assay type: toxicity, cell-based
[3] = Antioxidant activity assessed as DPPH radical scavenging activity at 10 uM incubated for 30 mins by absorbance based assay relative to trolox; assay type: functional
Calf thymus DNA [4] = test: Binding affinity to calf thymus DNA assessed as disruption of DNA by measuring increase in TB3+ fluorescence at 5 uM incubated for 24 hrs followed by biosensor TbCl3 addition by fluorescence spectrophotometric analysis; assay type: tissue-based; details: Bos taurus
[5] = Antioxidant activity assessed as DPPH radical scavenging activity at 100 uM incubated for 30 mins by absorbance based assay (reference value: […] %); assay type: functional
WI-38 = test: Cytotoxicity against human WI-38 cells by measuring effective concentration incubated for 72 hrs by MTT assay; assay type: toxicity, cell-based; details: wi-38, 72 h
A549 [6] = test: Induction of apoptosis in human A549 cells assessed as necrotic cells at 0.089 uM incubated for 48 hrs by annexin V-FITC/PI staining based flow cytometry (reference value: 1.21 %); assay type: functional
A549 [7] = test: Cytotoxicity against human A549 cells assessed as morphological damage incubated for 72 hrs by inverted phase contrast microscopic analysis; assay type: functional, cell-based
Calf thymus DNA [8] = test: Binding affinity to calf thymus DNA assessed as disruption of DNA by measuring increase in TB3+ fluorescence upto 4 uM incubated for 24 hrs followed by biosensor TbCl3 addition by fluorescence spectrophotometric analysis; assay type: tissue-based; details: Bos taurus
A549 [9] = test: Induction of cell cycle arrest in human A549 cells assessed as accumulation of cells at G1 phase at 0.089 uM incubated for 48 hrs by propidium iodide staining based immunocytometric analysis (reference value: 44.75 %); assay type: functional
A549 [10] = test: Induction of cell cycle arrest in human A549 cells assessed as accumulation of cell debris at 0.089 uM incubated for 48 hrs by propidium iodide staining based immunocytometric analysis (reference value: 2.25 %); assay type: functional
A549 [11] = test: cells; details: Homo sapiens, A549, 72 h
Description: Cytotoxicity against human A549 cells incubated for 72 hrs by MTT assay

A549 [12] = test: Induction of cell cycle arrest in human A549 cells assessed as accumulation of cells at S phase at 0.089 uM incubated for 48 hrs by propidium iodide staining based immunocytometric analysis (reference value: 36.94 %); assay type: functional
A549 [13] = test: Induction of apoptosis in human A549 cells assessed as late apoptotic cells at 0.089 uM incubated for 48 hrs by annexin V-FITC/PI staining based flow cytometry (reference value: 0.28 %); assay type: functional
A549 [14] = test: Induction of cell cycle arrest in human A549 cells assessed as accumulation of aggregates at 0.089 uM incubated for 48 hrs by propidium iodide staining based immunocytometric analysis (reference value: 1.81 %); assay type: functional
A549 [15] = test: Induction of cell cycle arrest in human A549 cells assessed as accumulation of cells at G2/M phase at 0.089 uM incubated for 48 hrs by propidium iodide staining based immunocytometric analysis (reference value: 18.31 %); assay type: functional
NCI-H460 = test: Cytotoxicity against human NCI-H460 cells incubated for 72 hrs by MTT assay; details: NCI-H460, 72 h
Calf thymus DNA [16] = test: Binding affinity to calf thymus DNA assessed as disruption of DNA by measuring increase in TB3+ fluorescence at 24.6 nM incubated for 24 hrs followed by biosensor TbCl3 addition by fluorescence spectrophotometric analysis; assay type: tissue-based; details: Bos taurus
A549 [17] = test: Induction of apoptosis in human A549 cells assessed as early apoptotic cells at 0.089 uM incubated for 48 hrs by annexin V-FITC/PI staining based flow cytometry (reference value: 0.37 %); assay type: functional
[18] = Selectivity index, ratio of IC50 for cytotoxicity against human WI-38 cells to IC50 for cytotoxicity against human NCI-H460 cells; assay type: toxicity, cell-based; details: WI-38 cells versus NCI-H460 cells, read-out: Ratio IC50
[19] = Selectivity index, ratio of IC50 for cytotoxicity against human WI-38 cells to IC50 for cytotoxicity against human A549 cells; assay type: toxicity, cell-based; details: WI-38 cells versus A549 cells, read-out: Ratio IC50
Calf thymus DNA [20] = test: Binding affinity to calf thymus DNA assessed as disruption of DNA by measuring increase in TB3+ fluorescence at 35.3 nM incubated for 24 hrs followed by biosensor TbCl3 addition by fluorescence spectrophotometric analysis; assay type: tissue-based; details: Bos taurus

Compound	IC50 (A549 [11]) [nM]	IC50 at 72 h [2] [nM]	EC100 (WI-38) [µM]	IC50 (NCI-H460) [nM]	selectivity ratio [18]	selectivity ratio [19]	other results
O=C(c1ccc([N+](=O)[O-])cc1)[C@H]1[C@H](c2cn(-c3ccccc3)nc2-c2ccccc2)[C@@H]2CC3CCCCC3N2[C@]12C(=O)Nc1ccc(Cl)cc12 (some centres undefined)	89	480	0.249	2460	–	–	Activity [1]: Dose-Dependent Effect; Activity [3]: 60%; Activity (Calf thymus DNA [4]): Active; Activity [5]: 88.4%; Activity (A549 [6]): 7.46%; Activity (A549 [7]): Active; Activity (Calf thymus DNA [8]): Active; Activity (A549 [9]): 38.56%; Activity (A549 [10]): 2.03%; Activity (A549 [12]): 33.28%; Activity (A549 [13]): 15.13%; Activity (A549 [14]): 1.96%; Activity (A549 [15]): 28.16%; Activity (Calf thymus DNA [16]): Active; Activity (A549 [17]): 25.72%
COc1cccc2c1C(=O)c1c(O)c3c(c(O)c1C2=O)C[C@@](O)(C(=O)CO)C[C@@H]3O[C@H]1C[C@H](N)[C@H](O)[C@H](C)O1 [DOXORUBICIN]	–	129	0.033	–	–	–	Activity (Calf thymus DNA [4]): Active
O=C(c1ccc([N+](=O)[O-])cc1)[C@H]1[C@H](c2cn(-c3ccccc3)nc2-c2ccccc2)[C@@H]2CC3CCCCC3N2[C@]12C(=O)Nc1ccccc12 (some centres undefined)	205	712	0.41	909	0.78	3.47	–
O=C(c1ccccc1[N+](=O)[O-])[C@H]1[C@H](c2cn(-c3ccccc3)nc2-c2ccccc2)[C@@H]2CC3CCCCC3N2[C@]12C(=O)Nc1cc(Cl)ccc12 (some centres undefined)	130	435	0.142	911	0.48	3.35	–
O=C(c1ccccc1[N+](=O)[O-])[C@H]1[C@H](c2cn(-c3ccccc3)nc2-c2ccccc2)[C@@H]2CC3CCCCC3N2[C@]12C(=O)Nc1ccccc12 (some centres undefined)	170	413	0.224	613	0.67	2.43	–
CN1C[C@@H](c2cn(-c3ccccc3)nc2-c2ccccc2)[C@H](C(=O)c2ccccc2)[C@@]12C(=O)Nc1ccc(Cl)cc12	283	545	0.308	417	1.3	1.93	–
O=C(c1ccccc1[N+](=O)[O-])[C@H]1[C@H](c2cn(-c3ccccc3)nc2-c2ccccc2)[C@@H]2CC3CCCCC3N2[C@]12C(=O)Nc1ccc(Cl)cc12 (some centres undefined)	96	294	0.094	1340	–	–	Activity (Calf thymus DNA [4]): Active; Activity (Calf thymus DNA [20]): Active; Activity (A549 [7]): Active; Activity (Calf thymus DNA [8]): Active
CN1C[C@@H](c2cn(-c3ccccc3)nc2-c2ccccc2)[C@H](C(=O)c2ccc([N+](=O)[O-])cc2)[C@@]12C(=O)Nc1ccc(Cl)cc12	131	480	0.287	1030	0.46	3.66	–
CN1C[C@@H](c2cn(-c3ccccc3)nc2-c2ccccc2)[C@H](C(=O)c2ccc([N+](=O)[O-])cc2)[C@@]12C(=O)Nc1ccccc12	223	741	0.375	748	0.99	3.32	–
COc1ccc2c(c1)[C@@]1(C(=O)N2)[C@@H](C(=O)c2ccc([N+](=O)[O-])cc2)[C@H](c2cn(-c3ccccc3)nc2-c2ccccc2)CN1C	235	1490	0.539	1140	1.3	6.34	–

Second part, led by results:

IC50 (A549 [11]) [nM]	Compound	IC50 at 72 h [2] [nM]	EC100 (WI-38) [µM]	IC50 (NCI-H460) [nM]	selectivity ratio [18]	selectivity ratio [19]	other results
231	O=C(c1ccccc1)[C@H]1[C@H](c2cn(-c3ccccc3)nc2-c2ccccc2)[C@@H]2CC3CCCCC3N2[C@]12C(=O)Nc1ccc(Cl)cc12 (some centres undefined)	467	0.28	529	0.88	2.02	–
205	O=C(c1ccc(Br)cc1)[C@H]1[C@H](c2cn(-c3ccccc3)nc2-c2ccccc2)[C@@H]2CC3CCCCC3N2[C@]12C(=O)Nc1cc(Cl)ccc12 (some centres undefined)	1040	0.594	1420	0.73	5.05	–
307	O=C(c1ccccc1)[C@H]1[C@H](c2cn(-c3ccccc3)nc2-c2ccccc2)[C@@H]2CC3CCCCC3N2[C@]12C(=O)Nc1ccccc12 (some centres undefined)	825	0.451	537	1.53	2.69	–
158	O=C(c1ccc(Br)cc1)[C@H]1[C@H](c2cn(-c3ccccc3)nc2-c2ccccc2)[C@@H]2CC3CCCCC3N2[C@]12C(=O)Nc1ccccc12 (some centres undefined)	466	0.271	725	0.64	2.95	–
212	COc1ccc2c(c1)[C@@]1(C(=O)N2)[C@@H](C(=O)c2ccc([N+](=O)[O-])cc2)[C@H](c2cn(-c3ccccc3)nc2-c2ccccc2)[C@@H]2CC3CCCCC3N21 (some centres undefined)	773	0.366	895	0.86	3.65	–
192	O=C(c1ccccc1)[C@H]1[C@H](c2cn(-c3ccccc3)nc2-c2ccccc2)[C@@H]2CC3CCCCC3N2[C@]12C(=O)Nc1cc(Cl)ccc12 (some centres undefined)	509	0.267	964	0.53	2.65	–
344	CN1C[C@@H](c2cn(-c3ccccc3)nc2-c2ccccc2)[C@H](C(=O)c2ccccc2)[C@@]12C(=O)Nc1ccccc12	1300	0.59	761	1.71	3.79	–
